# Assay: Henry solubility constant Hcp at 293 K (mol/(m3 Pa))
# Settings: reference: Hovorka and Dohnal (1997)
row,SMILES,Henry solubility constant Hcp at 293 K
1,ClC=C(Cl)Cl [trichloroethene],0.0013
2,ClCCl [dichloromethane],0.0051
3,"CC(Cl)(Cl)Cl [1,1,1-trichloroethane]",0.00079
4,"Clc1cccc(Cl)c1 [1,3-dichlorobenzene]",0.0047
5,ClC(Cl)=C(Cl)Cl [tetrachloroethene],0.00084
6,"Clc1ccc(Cl)cc1 [1,4-dichlorobenzene]",0.0054
7,"ClCC(Cl)Cl [1,1,2-trichloroethane]",0.015
8,Brc1ccccc1 [bromobenzene],0.0061
9,"ClC(Cl)C(Cl)Cl [1,1,2,2-tetrachloroethane]",0.03
10,Clc1ccccc1 [chlorobenzene],0.0035
11,"CC(Cl)CCl (centres undefined) [1,2-dichloropropane]",0.0046
12,BrC(Br)Br [tribromomethane],0.023
13,ClCc1ccccc1 [(chloromethyl)-benzene],0.028
14,BrCBr [dibromomethane],0.015
